Assay results reported in paper PMC12040169 (PLOS Biology, 2025).

Assay: in vitro
Conditions: human, hela cells, % viability

Row | SMILES | viability at 28.5 h, 10 µM [%] | viability at 28.5 h, 10 µM (bulk resorufin, single well) [%]
1 | CC(C)[C@H](CO)n1c(=O)[nH]c2ncc(-c3ccc(OC(F)(F)F)cc3)nc21 [CBK065037] | 105 | 
2 | O=C(NCCc1ccc(Cl)cc1)C1(Cc2ccc(-c3ccncc3)cc2)CCOCC1 [CBK285570] | 89 | 
3 | O=[N+]([O-])c1cnc(NS(=O)(=O)c2ccc(Oc3ccccc3)cc2)s1 [CBK067535] | 102 | 
4 | O=S(=O)(Nc1nc2c(s1)CCCC2)c1cc(Cl)ccc1Cl [CBK096578] | 98.7 | 
5 | O=C(c1cc(C2CCCN(Cc3ccccc3)C2)no1)N1CCCC1 (stereo not shown) [CBK283395] | 89.7 | 
6 | CC(C)c1ccc(/C=C/C(=O)NCCc2c[nH]cn2)cc1 [CBK149629] | 101 | 
7 | Nc1nnc(Nc2ccc(Cl)cc2)[nH]1 [CBK017433] | 91.7 | 
8 | COc1cccc2c1OC1(CCN(C(=O)c3ccno3)CC1)OC2 [CBK061071] |  | 97
9 | O=C(Cc1nc2ccccc2[nH]1)N1CCOCC1 [CBK019505] | 93.7 | 
10 | O=C(Nc1cc(Cl)ccc1O)c1ccc(C(=O)Nc2cc(Cl)ccc2O)cc1 [CBK266784] | 94.9 | 
11 | CC(C)NC(=O)[C@H]1O[C@H](CCN2CCN(c3ccccn3)CC2)CC[C@@H]1O [CBK288722] | 90.7 | 
12 | CC(O)c1cc2c(cc1NC(=O)c1cnn3c1NC(c1ccco1)CC3C(F)(F)F)OCO2 (stereo not shown) [CBK268850] | 83.3 | 
13 | Cn1ccnc1C1CCN(C(=O)NCc2cccc(F)c2)CC1 [CBK304606] | 91.3 | 
14 | CCN(CC)c1c(C)nc2ccc(C(=O)NCCN3CCNC3=O)cn12 [CBK145977] | 97.8 | 
15 | NC(=O)CN1CCC(Oc2cncc(OCc3ccc(Cl)c(Cl)c3)n2)C1 (stereo not shown) [CBK084429] | 101 | 
16 | CCCOCCCn1ccc2nc(OC)c(C#N)cc2c1=O [CBK307162] | 88 | 
17 | CCOC(=O)c1nnsc1Sc1ccc(C)cc1 [CBK018867] | 89.6 | 
18 | CCn1c(=O)n(CC(=O)Nc2ccccc2F)c2cccnc21 [CBK283897] | 102 | 
19 | c1ccc(Cn2c(-c3ccccc3)c(-c3ccccc3)c3c2ncn2nc(-c4cccnc4)nc32)cc1 [CBK265359] | 109 | 
20 | O=C1NCC2(CCN(C(=O)C3CCCC3)CC2)Oc2ccccc21 [CBK282920] | 94.1 | 
21 | FC(F)(F)c1cccc(Sc2cccs2)n1 [CBK115242] | 91.5 | 
22 | Cc1ccc(C(=O)N2CCN(C)CC2)c(N2CCOCC2)n1 [CBK106199] | 100 | 

Row | SMILES | viability at 28.5 h, 10 µM [%] | viability at 28.5 h, 10 µM (bulk resorufin, single well) [%]
23 | Cn1c(=O)n(C)c2cc(CNC(=O)C3NCCc4[nH]cnc43)ccc21 (stereo not shown) [CBK307274] | 89.2 | 
24 | O=C(O)CCCN1C(=O)/C(=C\c2ccccn2)SC1=S [CBK264552] | 92.4 | 
25 | Cc1ccc(S(N)(=O)=O)cc1CNC(=O)Nc1cccc(F)c1 [CBK093516] | 83.9 | 
26 | CCc1nc2ccc(C(=O)NCCN(C)C)cn2c1N(CC)CC(=O)N(C)C [CBK146762] | 89.6 | 
27 | CCN1C(=O)C2(CC(=O)N(Cc3ccccc3)C2=O)c2cc(Cl)ccc21 (stereo not shown) [CBK075233] | 99.1 | 
28 | O=C1COc2ccc(S(=O)(=O)NCCc3ccccc3)cc2N1 [CBK270162] | 114 | 
29 | COc1ccc(CN(C)c2c(C)nc3c(OCC(=O)C(C)(C)C)cccn23)cc1 [CBK147458] | 100 | 
30 | CCOC(=O)N1CCC2(CC1)OCc1cc(-c3cccc(F)c3)ccc1O2 [CBK060987] |  | 104
31 | O=C(CSc1nnc(-c2ccccc2)n1-c1ccccc1)N/N=C/c1coc2ccccc2c1=O [CBK262791] | 97.6 | 
32 | Cn1c(N2CCCC(C(=O)NCC3CC3)C2)nc2ccccc21 (stereo not shown) [CBK283987] | 92.6 | 
33 | Cc1ccc(CNC(Cc2c[nH]c3ccccc23)C(=O)O)cc1 (stereo not shown) [CBK287145] | 106 | 
34 | Clc1ccc(CN2CCC(Oc3cncc(OCc4cccnc4)n3)C2)cc1Cl (stereo not shown) [CBK084448] | 84 | 
35 | O=C(COc1ccccc1)Nc1ccccc1N1CCNCC1 [CBK028279T] | 108 | 
36 | O=C(Nc1ccc(N2CCN(Cc3ccccc3)CC2)cc1)c1ccc(-c2ccccc2)cc1 [CBK268622] | 109 | 
37 | Fc1ccc(CSc2nnc(-c3ccccn3)[nH]2)cc1 [CBK270074] | 85.8 | 
38 | O=C(NCC1CCCN1)c1cnn(-c2ccc(Cl)cc2)c1C(F)(F)F (stereo not shown) [CBK115925C] | 101 | 
39 | CN1C(=O)COc2ccccc2C/C=C/C[C@@H]2[C@H]1CCCN2S(=O)(=O)N1CCOCC1 [CBK292063] | 90.6 | 
40 | O=C(O)COc1cccc(NC(=O)c2ccccc2)c1 [CBK264602] | 88.3 | 
41 | COc1cccc(/C=C2/NC(=O)N(Cc3ccc(F)cc3)C2=O)c1OCc1cccc(C(=O)O)c1 [CBK265282] | 89.1 | 
42 | N#Cc1ccc(CNC2(Cc3cc(C(=O)N4CCCCC4)on3)COC2)cc1 [CBK289672] | 87 | 
43 | COc1cc(CNCc2ccco2)ccc1OCC(N)=O [CBK270204C] | 105 | 
44 | O=C(NC1CCCC1)c1ccc(-n2ccnc2)c(-n2cccc2)c1 [CBK285368] | 94.1 | 

Row | SMILES | viability at 28.5 h, 10 µM [%] | viability at 28.5 h, 10 µM (bulk resorufin, single well) [%]
45 | NC(=O)C1CCN(C2=NC(=O)/C(=C/c3cn(-c4ccccc4)nc3-c3cccs3)S2)CC1 [CBK265179] | 97.3 | 
46 | CN1C(=O)COc2ccccc2C/C=C/C[C@@H]2[C@H]1CCCN2S(=O)(=O)c1cccnc1 [CBK292067] | 102 | 
47 | O=C1N[C@@]2(CC3CCC2CC3C(=O)N2CCCC2)Nc2ccccc21 (stereo partly shown) [CBK284449] | 91.8 | 
48 | Cc1cc(C)cc(Nc2c([N+](=O)[O-])nn(-c3cccc(Cl)c3)[n+]2[O-])c1 [CBK268254] | 105 | 
49 | COc1ccc(-c2cc3cccn(CC(=O)N(C)C)c-3n2)cc1 [CBK285382] | 105 | 
50 | Cc1n[nH]c(=S)n1-c1ccc(Cl)cc1 [CBK012457] | 94.5 | 
51 | CS(=O)(=O)c1ccc(-n2cc(-c3cccnc3)nn2)cc1 [CBK113061] | 104 | 
52 | CCN(CC(=O)NCc1ccc(F)cc1)S(=O)(=O)c1ccccc1C#N [CBK305842] | 91.1 | 
53 | Cc1cccc(C(=O)Nc2ncn(CC(=O)N3CCCCCC3)n2)n1 [CBK304954] | 86.6 | 
54 | CCOC(=O)CN(C)Cc1c[nH]c2ccccc12 [CBK261869] | 107 | 
55 | Cc1ccc(CN(CCCn2ccnc2)Cc2cccnc2)o1 [CBK283100] | 106 | 
56 | Cc1ccn2cc(-c3ccc4c(c3)CCN4S(C)(=O)=O)cc2c1 [CBK285252] | 83.8 | 
57 | CC(=O)Oc1ccc(C(=O)NCc2ccc3c(c2)OCO3)cc1 [CBK264372] | 91.2 | 
58 | CC(=O)N1CCC[C@H]2NC(=O)CNC(=O)C3(C/C=C/C[C@H]21)CCN(c1ncccn1)CC3 [CBK292042] | 110 | 
59 | O=C1NC(=O)C(=Cc2ccccc2OS(=O)(=O)c2ccc3ccccc3c2)C(=O)N1 [CBK263599] |  | 64
60 | Cc1ccc(Nc2nc(N3CCOCC3)nc3nccnc23)cc1 [CBK287664] | 120 | 
61 | CNC(=O)c1ccc(NC(=O)CC(C)(C)CC(=O)O)cc1 [CBK296615] | 95.8 | 
62 | CC(NC(=O)N1CCNC(=O)C1)c1ccccc1 (stereo not shown) [CBK155877] | 96 | 
63 | O=C1N[C@H]2CCCN(C(=O)CCN3CCCC3)[C@H]2C/C=C/CCOc2ccccc21 [CBK292162] | 112 | 
64 | Cc1cc2ncc3c(n2n1)CC1CCC3N1C(=O)c1ccco1 (stereo not shown) [CBK284379] | 78.1 | 
65 | Nc1ccc(S(=O)(=O)NC2(C(F)(F)F)NC(=O)N(c3ccccc3Cl)C2=O)cc1 (stereo not shown) [CBK268003] | 107 | 
66 | O=C(c1ccc(N2CC=CCC2)nc1)N1CCC(N2CCOCC2)CC1 [CBK307334] | 80 | 

Row | SMILES | viability at 28.5 h, 10 µM [%] | viability at 28.5 h, 10 µM (bulk resorufin, single well) [%]
67 | O=[N+]([O-])c1ccc(CN(CCc2ccccc2)Cc2ccccc2)cc1 [CBK261866] | 99.2 | 
68 | Cc1ccc(CN(Cc2cnc(C)n2C)CC2CCCO2)o1 (stereo not shown) [CBK283291] | 100 | 
69 | Cc1ccc(CN(C)C(C)C(=O)NCc2cccs2)cc1 (stereo not shown) [CBK295663] | 103 | 
70 | COc1ccccc1-c1cc2c(=O)n(C)c(-c3ccc(CNC(C)C)cc3)cc2o1 [CBK051699C] | 84.5 | 
71 | O=C(NC1(C#Cc2cnc3ccccc3c2)CCCCC1)C1CCCO1 (stereo not shown) [CBK283085] | 81.9 | 
72 | O=C(NCC1CCCCC1)c1ccccc1-n1cccc1 [CBK149603] | 91.7 | 
73 | O=C(Nc1nccc(N2CCNCC2)n1)C1CCCC1 [CBK004302T] | 113 | 
74 | Cc1ccc(C(=O)NCc2cccc(COCc3ccco3)c2)cc1F [CBK297750] | 83.5 | 
75 | Nc1nc(N)c2ncn([C@H]3C[C@@H](O)[C@@H](CO)O3)c2n1 [CBK201208] | 97.4 | 
76 | CCCn1cc(NC(=O)C2(c3ccccc3)CCC2)ccc1=O [CBK306237] | 95.4 | 
77 | COc1cc2c(cc1OC)C1c3ccccc3NC(c3ccc(F)cc3)N1CC2 (stereo not shown) [CBK286191] | 102 | 
78 | Cn1ncc(N2CCC(CNC(=O)COc3ccc(Cl)cc3)C2)cc1=O (stereo not shown) [CBK306517] | 79 | 
79 | Cc1c(Cl)ccc2c(C(=O)Nc3ccc(S(=O)(=O)N4CCOCC4)cc3)cc(-c3cccnc3)nc12 [CBK267718] | 85.5 | 
80 | O=C(Nc1nc2c(F)cc(F)cc2s1)c1ccc(F)cc1 [CBK287617] | 101 | 
81 | COC(=O)c1ccsc1NS(=O)(=O)c1ccc(Oc2ccccc2)cc1 [CBK039064] | 108 | 
82 | COCCn1cc(C(=O)N2CCN(C)CC2C)c2ccccc21 (stereo not shown) [CBK305123] |  | 102
83 | Cc1nc(S(=O)(=O)N2CCC(C(=O)N3CCCCC3)CC2)cn1C [CBK305963] | 89.4 | 
84 | CC(=O)NC[C@H]1CN(c2ccc3c(c2)CCN(C(C)=O)CC3)C(=O)O1 [CBK018491] | 86.6 | 
85 | CCNC(=O)c1cnc(-c2ccc(F)cc2)c(-c2ccncc2)c1 [CBK037477] | 101 | 
86 | Cn1ncc2c1CCCN(C(=O)Cc1ccc3c(c1)CCCO3)C2 [CBK282253] | 87.8 | 
87 | O=C(O)CCCN1C(=O)C(O)=C(C(=O)c2ccc([N+](=O)[O-])cc2)C1c1ccccc1F (stereo not shown) [CBK263810] | 97.8 | 
88 | CC(=O)NC(CC(=O)NCc1cccnc1-n1cncn1)c1ccc(Cl)cc1 (stereo not shown) [CBK298314] | 101 | 
